From patent publication US20240226225A1 (Protagonist Therapeutics, Inc., priority 2021, published 2024)
Starred links: 1 amine or outer side, 2 acyl side, 3 side chain; linkers in the order of their positions; H or OH if unused. Positions of bridges follow the written chain, without caps; N, C: chain ends. Non-standard residues stand in square brackets, D forms with d. Residues, ends and D or L forms follow the SMILES beside them. Groups on a side chain read outwards from the residue. *: point of attachment. CH3O(CH2CH2O)11CH2CH2CO = COCCOCCOCCOCCOCCOCCOCCOCCOCCOCCOCCOCCC(=O)*; PEG12 = NCCOCCOCCOCCOCCOCCOCCOCCOCCOCCOCCOCCOCCC(=O)O; Ala(1H-tetrazol-5-yl) = N[C@@H](Cc1nnn[nH]1)C(=O)O; C18 diacid = O=C(O)CCCCCCCCCCCCCCCCC(=O)*; Dip = N[C@H](C(=O)O)C(c1ccccc1)c1ccccc1; γGlu = O=C(O)[C@H](CCC(=O)[*:2])N[*:1]; Palmitoyl = CCCCCCCCCCCCCCCC(=O)*; β3hF = N[C@H](CC(=O)O)Cc1ccccc1; Isovaleryl = CC(C)CC(=O)*; AEEA = NCCOCCOCC(=O)O; Ahx = NCCCCCC(=O)O

How the values were obtained:
[1] = molecular target: T1, ferroportin (Homo sapiens, UniProt Q9NP59); test: FPN activity assay: internalization/degradation of ferroportin-GFP in stably transfected HEK293 cells, decrease in GFP fluorescence; type: cell-based; design: expressed in transfected cells; settings: HEK293 cells stably expressing ferroportin-GFP, at least 18 hours incubation; read-out: FPN EC50
T1 sequence (Q9NP59 1-571): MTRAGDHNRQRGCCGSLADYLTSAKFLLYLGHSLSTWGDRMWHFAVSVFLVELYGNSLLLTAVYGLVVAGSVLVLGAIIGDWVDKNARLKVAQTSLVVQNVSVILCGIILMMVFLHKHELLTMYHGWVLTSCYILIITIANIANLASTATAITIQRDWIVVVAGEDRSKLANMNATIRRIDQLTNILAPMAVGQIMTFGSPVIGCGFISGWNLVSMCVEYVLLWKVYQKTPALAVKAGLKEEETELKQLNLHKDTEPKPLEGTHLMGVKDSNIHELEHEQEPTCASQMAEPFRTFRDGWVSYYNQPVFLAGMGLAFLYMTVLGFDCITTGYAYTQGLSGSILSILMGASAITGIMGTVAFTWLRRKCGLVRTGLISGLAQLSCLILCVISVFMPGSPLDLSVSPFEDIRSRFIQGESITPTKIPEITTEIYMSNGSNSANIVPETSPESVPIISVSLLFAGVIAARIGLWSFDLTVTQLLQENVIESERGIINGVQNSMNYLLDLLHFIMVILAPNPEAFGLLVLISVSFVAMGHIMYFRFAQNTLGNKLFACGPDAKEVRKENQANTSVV

[2] = molecular target: T1, ferroportin; test: T47D cell-based ferroportin internalization assay in presence of 0.5% mouse serum albumin (MSA), AF647-conjugated detection peptide, flow cytometry; design: a human breast carcinoma adherent cell line which endogenously expresses ferroportin; host or cells: T47D; settings: T47D cells, 1 hr incubation
Procedure: The potency of the peptides in causing ferroportin internalization was evaluated in a T47D cell-based assay. […] In this internalization assay, the potency of the test peptides was evaluated in presence of serum albumin which is the main protein component in the blood. T47D cells were maintained in RPMI media (containing required amount of fetal bovine serum) and regularly sub-cultured. In preparation for the assay, the cells were seeded in 96-well plates at a density of 80-100 k cells per well in 100 ul volume and allowed to rest overnight. On the next day, test peptides were first prepared in dilution series (10-point series, starting concentration of ˜5 μM, typically 3-4×fold dilution steps), all with 0.5% mouse serum albumin (MSA purified from mouse serum; Sigma, A3139). The test peptide dilution series were allowed to incubate at room temperature for 30 min. Then the media was aspirated from the 96-well cell plate and test peptide dilution series were added. After 1 hr incubation, the media with test peptides was aspirated out and AF647-conjugated detection peptide was added at fixed concentration of 200 nM. The AF647-conjugated detection peptide was previously verified to bind to ferroportin and cause its internalization. The cells were washed again after a 2 hr incubation in preparation for flow cytometry analysis. The Median Fluorescence Intensity (MFI) of the AF647-positive population was measured (after removing dead cells and non-singlets from the analysis). The MFI values were used to generate a dose-response curve and obtain IC50 potencies for the test peptides. The IC50 potencies were calculated by using 4-parameter non-linear fitting function in Graphpad Prism (Table 2A).

SMILES	DC50 [1] [µM]	IC50 [2] [µM]
CC[C@H](C)[C@@H]1NC(=O)[C@@H](NC(=O)[C@@H]2CCCN2C(=O)[C@@H](NC(=O)[C@H](Cc2c[nH]cn2)NC(=O)[C@@H](NC(=O)[C@H](Cc2nn[nH]n2)NC(=O)C(C)(C)Br)[C@@H](C)O)C(c2ccccc2)c2ccccc2)CSSC[C@@H](C(N)=O)NC(=O)[C@@H](CCCCN)NC(=O)C[C@H](Cc2ccccc2)NC(=O)[C@H](CCCCNC(=O)COCCOCCNC(=O)COCCOCCNC(=O)CC[C@H](NC(=O)CCCCCCCCCCCCCCCCC(=O)O)C(=O)O)NC1=O [Compd 46, Propanoic_Acid_2Me2Br-[Tet1]-T-H-[Dpa]-P-[Cys]-I-[Lys(1PEG2_1PEG2_IsoGlu_C18_Diacid)]-[bhPhe]-[(D)Lys]-[Cys]-NH2]	0.01 to 0.1	0.01 to 0.1
CC[C@H](C)[C@@H]1NC(=O)[C@@H](NC(=O)[C@@H]2CCCN2C(=O)[C@@H](NC(=O)[C@H](Cc2cnc[nH]2)NC(=O)[C@@H](NC(=O)[C@H](CC2N=NN=N2)NC(=O)CC(C)C)[C@@H](C)O)C(c2ccccc2)c2ccccc2)CSSC[C@@H](C(N)=O)NC(=O)[C@@H](CCCCN)NC(=O)C[C@H](Cc2ccccc2)NC(=O)[C@H](CCCCNC(=O)COCCOCCNC(=O)COCCOCCNC(=O)CCCCCNC(=O)CCCCCCCCCCCCCCCCC(=O)O)NC1=O [Compd 51, Isovaleric Acid-[Tet1]-T-H-[Dpa]-P-[Cys]-I-[Lys(1PEG2_1PEG2_Ahx_C18_Diacid)]-[bhPhe]-[(D)Lys]-[Cys]-NH2]	0.01 to 0.1	0.01 to 0.1
CC[C@H](C)[C@@H]1NC(=O)[C@@H](NC(=O)[C@@H]2CCCN2C(=O)[C@@H](NC(=O)[C@H](Cc2c[nH]cn2)NC(=O)[C@@H](NC(=O)[C@H](Cc2nn[nH]n2)NC(=O)CC(C)C(F)(F)F)[C@@H](C)O)C(c2ccccc2)c2ccccc2)CSSC[C@@H](C(N)=O)NC(=O)[C@@H](CCCCN)NC(=O)C[C@H](Cc2ccccc2)NC(=O)[C@H](CCCCNC(=O)COCCOCCNC(=O)COCCOCCNC(=O)CC[C@H](NC(=O)CCCCCCCCCCCCCCCCC(=O)O)C(=O)O)NC1=O (some centres unmarked) [Compd 45, Butyric_Acid_3CF3-[Tet1]-T-H-[Dpa]-P-[Cys]-I-[Lys(1PEG2_1PEG2_IsoGlu_C18_Diacid)]-[bhPhe]-[(D)Lys]-[Cys]-NH2]	0.01 to 0.1	0.1 to 0.5
CC[C@H](C)[C@@H]1NC(=O)[C@@H](NC(=O)[C@@H]2CCCN2C(=O)[C@@H](NC(=O)[C@H](Cc2cnc[nH]2)NC(=O)[C@@H](NC(=O)[C@H](CC2N=NN=N2)NC(=O)CC(C)C)[C@@H](C)O)C(c2ccccc2)c2ccccc2)CSSC[C@@H](C(N)=O)NC(=O)[C@@H](CCCCN)NC(=O)C[C@H](Cc2ccccc2)NC(=O)[C@H](CCCCNC(=O)COCCOCCNC(=O)COCCOCCNC(=O)[C@H](CN)NC(=O)CCCCCCCCCCCCCCCCC(=O)O)NC1=O [Compd 53, Isovaleric_Acid-[Tet1]-T-H-[Dpa]-P-[Cys]-I-[Lys(1PEG2_1PEG2_Dap_C18_Diacid)]-[bhphe]-[(D)Lys]-[Cys]-NH2]	0.01 to 0.1	0.01 to 0.1
CCCCCCCCCCCCCCCC(=O)NCCCCCC(=O)NCCCC[C@@H]1NC(=O)C[C@H](Cc2ccccc2)NC(=O)[C@@H](CCCCNC(=O)CCOCCOCCOCCOCCOCCOCCOCCOCCOCCOCCOCCOC)NC(=O)[C@H]([C@@H](C)CC)NC(=O)[C@@H](NC(=O)[C@@H]2CCCN2C(=O)[C@@H](NC(=O)[C@H](Cc2c[nH]cn2)NC(=O)[C@@H](NC(=O)[C@H](Cc2nn[nH]n2)NC(=O)CC(C)C)[C@@H](C)O)C(c2ccccc2)c2ccccc2)CSSC[C@@H](C(N)=O)NC(=O)[C@@H](CCCCNC(=O)CCOCCOCCOCCOCCOCCOCCOCCOCCOCCOCCOCCOC)NC1=O [Compd 50, Isovaleric Acid-[Tet1]-T-H-[Dpa]-P-[Cys]-I-[(DLys(PEG11_OMe-[bhPhe]-[Lys(Ahx_Palm)]-[(D)Lys(PEG11_OMe)]-[Cys]-NH2] (Isovaleryl-[Ala(1H-tetrazol-5-yl)]TH[Dip]PCI[dK](CH3O(CH2CH2O)11CH2CH2CO)[β3hF]K([Ahx-Palmitoyl])[dK](CH3O(CH2CH2O)11CH2CH2CO)C-NH2; disulfide 6-12)	0.01 to 0.1	0.001 to 0.01
CC[C@H](C)[C@@H]1NC(=O)[C@@H](NC(=O)[C@@H]2CCCN2C(=O)[C@@H](NC(=O)[C@H](Cc2c[nH]cn2)NC(=O)[C@@H](NC(=O)[C@H](Cc2nn[nH]n2)NC(=O)CC(C)C)[C@@H](C)O)C(c2ccccc2)c2ccccc2)CSSC[C@H](C(N)=O)NC(=O)C[C@H](Cc2ccccc2)NC(=O)[C@H](CCCCNC(=O)COCCOCCNC(=O)COCCOCCNC(=O)CC[C@H](NC(=O)CCCCCCCCCCCCCCCCC(=O)O)C(=O)O)NC1=O [Compd 36, Isovaleric Acid-[Tet1]-T-H-[Dpa]-P-[Cys]-I-[Lys(1PEG2_1PEG2_IsoGlu_C18_Diacid)]-[bhPhe]-d[Cys]-NH2] (Isovaleryl-[Ala(1H-tetrazol-5-yl)]TH[Dip]PCIK([AEEA-AEEA-γGlu-C18 diacid])[β3hF][dC]-NH2; disulfide 6-10)	0.01 to 0.1	0.1 to 0.5
CC[C@H](C)[C@@H]1NC(=O)[C@@H](NC(=O)[C@@H]2CCCN2C(=O)[C@@H](NC(=O)[C@H](Cc2c[nH]cn2)NC(=O)[C@@H](NC(=O)[C@H](Cc2nn[nH]n2)NC(=O)CC(C)C)[C@@H](C)O)C(c2ccccc2)c2ccccc2)CSSC[C@@H](C(N)=O)NC(=O)[C@@H](CCCCN)NC(=O)C[C@H](Cc2ccccc2)NC(=O)[C@H](CCCCNC(=O)COCCOCCNC(=O)COCCOCCNC(=O)CC[C@H](NC(=O)CCCCCCCCCCCCCCCCC(=O)O)C(=O)O)NC1=O [Compd 40, Isovaleric Acid-[Tet1]-T-H-[Dpa]-P-[Cys]-I-[Lys(1PEG2_1PEG2_IsoGlu_C18_Diacid)]-[bhPhe]-[(D)Lys]-[Cys]-NH2] (Isovaleryl-[Ala(1H-tetrazol-5-yl)]TH[Dip]PCIK([AEEA-AEEA-γGlu-C18 diacid])[β3hF][dK]C-NH2; disulfide 6-11)	0.01 to 0.1	0.01 to 0.1
CCCCCCCCCCCCCCCC(=O)NCCOCCOCCOCCOCCOCCOCCOCCOCCOCCOCCOCCOCCC(=O)NCCCC[C@@H]1NC(=O)[C@H]([C@@H](C)CC)NC(=O)[C@@H](NC(=O)[C@@H]2CCCN2C(=O)[C@@H](NC(=O)[C@H](Cc2c[nH]cn2)NC(=O)[C@@H](NC(=O)[C@H](Cc2nn[nH]n2)NC(=O)CC(C)C)[C@@H](C)O)C(c2ccccc2)c2ccccc2)CSSC[C@@H](C(N)=O)NC(=O)[C@@H](CCCCN)NC(=O)C[C@H](Cc2ccccc2)NC1=O [Compd 1, Isovaleric Acid-[Tet1]-T-H-[Dpa]-P-[Cys]-I-[Lys(PEG12_Palm)]-[bhPhe]-[(D)Lys]-[Cys]-NH2] (Isovaleryl-[Ala(1H-tetrazol-5-yl)]TH[Dip]PCIK([PEG12-Palmitoyl])[β3hF][dK]C-NH2; disulfide 6-11)	0.01 to 0.1	0.001 to 0.01
CC[C@H](C)[C@@H]1NC(=O)[C@@H](NC(=O)[C@@H]2CCCN2C(=O)[C@@H](NC(=O)[C@H](Cc2cncn2C)NC(=O)[C@@H](NC(=O)[C@H](CC2N=NN=N2)NC(=O)CC(C)C)[C@@H](C)O)C(c2ccccc2)c2ccccc2)CSSC[C@@H](C(N)=O)NC(=O)[C@@H](CCCCN)NC(=O)C[C@H](Cc2ccccc2)NC(=O)[C@H](CCCCNC(=O)COCCOCCNC(=O)COCCOCCNC(=O)CC[C@H](NC(=O)CCCCCCCCCCCCCCCCC(=O)O)C(=O)O)NC1=O [Compd 8, Isovaleric Acid-[Tet1]-T-[His_3Me]-[Dpa]-P-[Cys]-I-[Lys(1PEG2_1PEG2_IsoGlu_C18_Diacid)]-[bhPhe]-[(D)Lys]-[Cys]-NH2]	0.01 to 0.1	0.1 to 0.5
CCCC(=O)N[C@@H](Cc1nn[nH]n1)C(=O)N[C@H](C(=O)N[C@@H](Cc1c[nH]cn1)C(=O)N[C@H](C(=O)N1CCC[C@H]1C(=O)N[C@H]1CSSC[C@@H](C(N)=O)NC(=O)[C@@H](CCCCN)NC(=O)C[C@H](Cc2ccccc2)NC(=O)[C@H](CCCCNC(=O)COCCOCCNC(=O)COCCOCCNC(=O)CC[C@H](NC(=O)CCCCCCCCCCCCCCCCC(=O)O)C(=O)O)NC(=O)[C@H]([C@@H](C)CC)NC1=O)C(c1ccccc1)c1ccccc1)[C@@H](C)O [Compd 49, Butyric_Acid-[Tet1]-T-H-[Dpa]-P-[Cys]-I-[Lys(1PEG2_1PEG2_IsoGlu_C18_Diacid)]-[bhPhe]-[(D)Lys]-[Cys]-NH2]	0.01 to 0.1	0.01 to 0.1
